# Measured values reported in patent US20250381194A1, “METHODS FOR MITIGATING THE EFFECTS OF LOW-LEVEL BLASTS THROUGH PHOSPHODIESTERASE-5 INHIBITION” (University of Kentucky Research Foundation, priority 2024, published 2025).
# “Also recorded” adds a separate entry of the source.
# Columns and labels:
# GFAP = assay: Western blot for GFAP in cortical tissue seven days post-rmbTBI; format: in vivo, Sprague Dawley rats; conditions: rmbTBI (2 blasts, 24 h interval), vs rmbTBI vehicle
# From the text: Blast Exposure. The MBD consists of a cylindrical steel tube, 12-inch internal diameter, separated into a 19-ft. expansion chamber and a 2.5-ft compression chamber. For these studies, compressed helium-driven mode was used to replicate military blast exposure. A 10-mil-thick (0.254 mm) biaxially-oriented polyethylene terephthalate (Mylar) membrane separates the two chambers. The Mylar membrane was actively ruptured by a 4-point blade affixed to a pneumatic cylinder to achieve desired static overpressure. The shock wave was recorded by face-on, reflected pressure (Kulite pitot-static pressure probe) and wall-mounted side-on static pressure sensors (Kulite). Data from each piezoresistive sensor was routed through sensor cables before being captured by the state-of-the-art TMX-18 (AstroNova™ Test & Measurement, 800 kHz sampling rate) and analyzed using AstroView. The rat subjects were secured in plastic netting to minimize but allow free body motion without neck flexion. The rat subjects were positioned 30 inches inside the tube and with lateral head exposure. […] Expression of peroxisome proliferator-activated receptor gamma coactivator 1-alpha (PGC-1α), glial fibrillary acidic protein (GFAP), and β-actin was assessed in cortical tissue using western blot. […] Expression of PGC-1a and β-actin was also assessed using in the hippocampal tissue of subjects using western blot. […]
# TOM20 = assay: Capillary-specific mitochondrial content (TOM20 staining) seven days post-rmbTBI; format: in vivo, Sprague Dawley rats; conditions: 20 mg/kg high dose daily to day seven, vs rmbTBI vehicle
# From the text: (§1) Blast Exposure. The MBD consists of a cylindrical steel tube, 12-inch internal diameter, separated into a 19-ft. expansion chamber and a 2.5-ft compression chamber. For these studies, compressed helium-driven mode was used to replicate military blast exposure. A 10-mil-thick (0.254 mm) biaxially-oriented polyethylene terephthalate (Mylar) membrane separates the two chambers. The Mylar membrane was actively ruptured by a 4-point blade affixed to a pneumatic cylinder to achieve desired static overpressure. The shock wave was recorded by face-on, reflected pressure (Kulite pitot-static pressure probe) and wall-mounted side-on static pressure sensors (Kulite). Data from each piezoresistive sensor was routed through sensor cables before being captured by the state-of-the-art TMX-18 (AstroNova™ Test & Measurement, 800 kHz sampling rate) and analyzed using AstroView. The rat subjects were secured in plastic netting to minimize but allow free body motion without neck flexion. The rat subjects were positioned 30 inches inside the tube and with lateral head exposure. An overpressure of 11 PSI was utilized, which is in the range where neurological disruption has been observed in operations involving breaching activity. In the studies underlying this example, Sprague Dawley rats were subjected to repeated blast exposure (2 blasts at 24 h interval). Capillary Isolation. […]
# [1] = test system: mitochondrial volume and tight junction proteins in isolated brain capillaries; assay: Correlation of capillary mitochondrial volume (OXPHOS) and ZO-1, chronic delayed sildenafil study; format: in vivo, Sprague Dawley rats; conditions: 20 mg/kg oral gavage daily from 2 to 5 months post-blast; brain capillaries at 5 months post-rmbTBI
# Method: Brain Capillary Isolation and Immunostaining. Half frozen rat brain from all groups was homogenized with isolation buffer (pH7.4 DPBS containing 5.5 mM glucose, 1 mM sodium pyruvate, and 1% BSA). The homogenate was centrifuged at 1000×g for 10 min at 4° C. to remove the supernatant. […] After evaluating the quality and concentration of capillary suspension under a bright field microscope, which may contain small amount of large vessel and cells, the isolated capillary sample was ready for the immunostaining analysis. […]
# The expression of ZO-1 was quantified by measuring the mean fluorescence intensity by tracing the capillary under NIS-Elements analysis software. The total capillary area was measured by using NIS-Elements. For mitochondrial volume, the OXPHOS fluorescence from Z-stack images was quantified using Imaris (X64 9.6.1) using surface creation tool. […]
# ZO-1 = assay: Tight junction integrity (ZO-1 immunostaining of cortical capillaries) seven days post-rmbTBI; format: in vivo, Sprague Dawley rats; conditions: 20 mg/kg high dose daily to day seven, vs rmbTBI vehicle
# From the text: as §1
# [2] = test system: freezing behavior after rmbTBI; assay: Contextual fear conditioning test, chronic delayed sildenafil study; format: in vivo, Sprague Dawley rats; conditions: 20 mg/kg daily; 5 months post-blast; day 1 acquisition, days 2-4 extinction
# Method: Animal Procedure. […] MRI (magnetic resonance imaging) was performed at 1.5 and 4.5 months post-blast. Fear conditioning test was performed at 5 months post-blast. At the end of the experiment, rats were euthanized and the brain tissue was collected after transcardial perfusion with PBS (FIG. 24). One hemisphere of the brain was snap frozen with liquid nitrogen for brain capillary isolation while another hemisphere of the brain was fixed with 4% paraformaldehyde (PFA). After 48 hours of fixation, the brain tissue was placed into PBS containing 30% sucrose for 72 hours. The sucrose saturated brain tissue was flash frozen in-25 to −35° C. isopentane and stored at −20° C. or proceeded to sectioning. Fear Conditioning Test. Contextual Fear Conditioning paradigm was performed over 4 days. On the acquisition day, rats were placed in a foot shock chamber with a camera within a sound-attenuating chamber and were allowed to explore freely for 2 min. After 2 min, a total of 6 electric shocks (0.75 mA, 2 s duration) were delivered at intervals of 60 s through the testing chamber floor, with shock delivery controlled by Med associates Inc. VideoFreeze™ Video Fear Conditioning Software. […] Video footage was later scored for freezing behavior using Med associates Inc. VideoFreeze™ Video Fear Conditioning Software. […]
# [3] = test system: cerebral blood flow (CBF); assay: MRI arterial spin labeling of cerebral blood flow, chronic delayed sildenafil study; format: in vivo, Sprague Dawley rats; conditions: 20 mg/kg daily, 2 and 4.5 months post-rmbTBI, between sham, rmbTBI+vehicle
# Method: Animal Procedure. […] MRI (magnetic resonance imaging) was performed at 1.5 and 4.5 months post-blast. […] At the end of the experiment, rats were euthanized and the brain tissue was collected after transcardial perfusion with PBS (FIG. 24). One hemisphere of the brain was snap frozen with liquid nitrogen for brain capillary isolation while another hemisphere of the brain was fixed with 4% paraformaldehyde (PFA). After 48 hours of fixation, the brain tissue was placed into PBS containing 30% sucrose for 72 hours. The sucrose saturated brain tissue was flash frozen in-25 to −35° C. isopentane and stored at −20° C. or proceeded to sectioning.
# Magnetic Resonance Imaging (MRI). MRI scanning was performed at 1.5 months and 4.5 months post-blast injury. Briefly, rats were placed under anesthesia with 4% isoflurane before placing it in the MRI scanner. Physiological monitoring was recorded every 10 min (with normal range 300-450 bpm) and rat body temperature was maintained while scanning under anesthesia. […] Labeling efficiency was calculated from a pCASL-encoded fast low-angle shot (FLASH) sequence (TR/TE=250/3.5 ms; in plane resolution 182×182 μm2; slice thickness 1.5 mm; flip angle 80° labeling time 200 ms; transit time 0 ms) image of the carotid artery just below the split and 5 mm above the labeling slice. […]
# PGC-1α = assay: Western blot for PGC-1α in cortical and hippocampal tissue seven days post-rmbTBI; format: in vivo, Sprague Dawley rats; conditions: vs rmbTBI vehicle; for PGC-1α expression in cortex tissue: rmbTBI (2 blasts, 24 h interval)
# From the text: Blast Exposure. The MBD consists of a cylindrical steel tube, 12-inch internal diameter, separated into a 19-ft. expansion chamber and a 2.5-ft compression chamber. For these studies, compressed helium-driven mode was used to replicate military blast exposure. A 10-mil-thick (0.254 mm) biaxially-oriented polyethylene terephthalate (Mylar) membrane separates the two chambers. The Mylar membrane was actively ruptured by a 4-point blade affixed to a pneumatic cylinder to achieve desired static overpressure. The shock wave was recorded by face-on, reflected pressure (Kulite pitot-static pressure probe) and wall-mounted side-on static pressure sensors (Kulite). Data from each piezoresistive sensor was routed through sensor cables before being captured by the state-of-the-art TMX-18 (AstroNova™ Test & Measurement, 800 kHz sampling rate) and analyzed using AstroView. The rat subjects were secured in plastic netting to minimize but allow free body motion without neck flexion. The rat subjects were positioned 30 inches inside the tube and with lateral head exposure. An overpressure of 11 PSI was utilized, which is in the range where neurological disruption has been observed in operations involving breaching activity. In the studies underlying this example, Sprague Dawley rats were subjected to repeated blast exposure (2 blasts at 24 h interval). Tissue Isolation. For downstream western blot, whole brain homogenate was collected during brain capillary isolation and mixed with 10× RIPA buffer (150 mM NaCl, 1% Triton X-100, 0.5% sodium deoxycholate, 0.1% SDS, 50 mM Tris, pH 8.0) supplemented with protease inhibitors. The samples were snap-frozen in liquid nitrogen and stored at −80° C. until further use. Mitochondrial Biogenesis and Astrocyte Homeostasis. […] Expression of peroxisome proliferator-activated receptor gamma coactivator 1-alpha (PGC-1α), glial fibrillary acidic protein (GFAP), and β-actin was assessed in cortical tissue using western blot. Cortical tissue was extracted and probed seven days post-rmbTBI. Expression of PGC-1a and β-actin was also assessed using in the hippocampal tissue of subjects using western blot. Hippocampal tissue was extracted and probed seven-days post-rmbTBI.
# [4] = test system: rat brain microvascular endothelial cells; assay: Mitochondrial Network Analysis (MiNA) with mitotracker green in cell culture; format: cell-based; conditions: sildenafil 1 μM in 1% DMSO overnight vs vehicle
# From the text: Mitochondrial Mechanisms Targeting mbTBI. […] Mitochondrial Network Analysis (MiNA) workflow in ImageJ was used to examine mitochondrial parameters.
# [5] = 5 mg/kg low dose daily to day seven
# [6] = 20 mg/kg high dose daily to day seven
structure (smiles),measurement,setting,value
CCCc1nn(C)c2c(=O)[nH]c(-c3cc(S(=O)(=O)N4CCN(C)CC4)ccc3OCC)nc12 [sildenafil],GFAP expression in cortex tissue,GFAP; [5],increased
same,GFAP expression in cortex tissue,GFAP; [6],increased
same,TOM20 expression / capillary mitochondrial volume,TOM20,significantly increased; also recorded: increased volume
same,correlation between capillary mitochondrial content (OXPHOS) and tight junction integrity (ZO-1),[1],significant positive correlation; also recorded: strengthens the correlation
same,ZO-1 expression in cortical capillaries,ZO-1,increased; also recorded: non-significantly increased
same,freezing episodes (fear extinction),[2],significant time-related decrease
same,"regional cerebral blood flow (CBF) in cortex, hippocampus and amygdala",[3],No significant differences
same,PGC-1α expression in cortex tissue,PGC-1α; [5],increased
same,PGC-1α expression in cortex tissue,PGC-1α; [6],increased
same,PGC-1α expression in hippocampal tissue,"PGC-1α; 20 mg/kg high dose daily to day seven, rmbTBI",significantly increased
same,mitochondrial branching,[4],decreased
same,mitochondrial footprint/density,[4],increased
